pIC50: −log10 of the molar value.
How the values were obtained:
[1] = Comparison of pharmacokinetics in Beagle dogs; format: in vivo; settings: for clearance / half-life / bioavailability: male, dog, plasma; for half-life: read-out: Half-life period (converted)
Description: Test 2: Comparison of Pharmacokinetics in Beagle Dogs
In this study, male Beagle dogs were given the compounds of the examples and vinpocetine (as a control compound) by intravenous injection or oral administration, respectively, then the drug concentration in plasma at different time points was determined by the LC/MS/MS method, so as to investigate the pharmacokinetic characteristics of the two test drugs in Beagle dogs.
Eight healthy adult Beagle dogs with a weight of 7.0 to 10.83 kg (purchased from Beijing Marshall Biotechnology Co., Ltd.) were selected. The formulation for intravenous injection group was DMSO: PEG400: water=5:20:75. A solvent was added to the test compound which had been accurately weighed, after vortex oscillation and ultrasound, a clear solution with a final concentration of 1.0 mg/mL was obtained. The solution was filtered with a filter membrane of 0.22 μm and stored at room temperature for use. The formulation for oral administration group was PEG 400: Tween 80: H2O=40:10:50. A solvent was added to the test compound which had been accurately weighed, after vortex oscillation and ultrasound, a clear solution with a final concentration of 1.5 mg/mL was obtained. The formulations for both the intravenous injection and the oral administration were formulated on the day of administration. The intravenous dose was 1.0 mg/kg, and the oral dose was 3.0 mg/kg. The whole blood for each test compound was respectively taken at 0.083 (for intravenous injection only), 0.25, 0.5, 1, 2, 4, 6, 8 and 24 hours after administration. The whole blood was centrifuged (3000 g, 15 min, 4° C.) to obtain the plasma. The drug concentration in each plasma sample was determined by LC/MS/MS method. The data about drug concentration in plasma was processed by WinNonlin™ Version 6.3 (Pharsight, Mountain View, Calif.) software, using a non-compartmental model, and the pharmacokinetic parameters were calculated by using the linear-logarithmic trapezoidal method.

[2] = target: T1, PDE1A (Homo sapiens, UniProt P54750); experiment: In vitro detection of phosphodiesterase (PDE): PDE1A enzyme activity by fluorescence polarization immunoassay; format: biochemical; settings: human-derived enzyme, cAMP or cGMP substrate; read-out: IC50s for PDE1
T1 construct: purchased SignalChem
Method in brief: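 Human PDE1A (enzyme solution 3 pM) was preincubated 10 min at RT with compound in 10 mM Tris-HCl pH 7.5, 5 mM MgCl2, 0.01% Brij 35, 1 mM DTT, 1% DMSO, with Ca2+-calmodulin cofactor. Reaction ran 1 h at RT on […] cAMP or cGMP, then 90 min with antibody/tracer. FP at Ex/Em 620/688 was converted to AMP/GMP via standard curve to give IC50.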

[3] = test system: pentylenetetrazole-kindling model of epilepsy; experiment: Inhibition effect on pentylenetetrazole-kindling model of epilepsy in cynomolgus monkey; format: in vivo; settings: 10 mg/kg; for latency prolonged than the Vehicle group / latency, relative increase versus Vehicle group / lasting time of convulsions shortened compared with the Vehicle Group / lasting time of convulsions, relative reduction versus Vehicle Group / times of clonic and tonic convulsion reduced compared with the Vehicle Group / times of clonic and tonic convulsion, relative reduction versus Vehicle Group: versus Vehicle group; for latency for the onset of epilepsy seizure: continuous administration of 8 days, pentylenetetrazole 40 mg/kg s.c.; for latency for the onset of epilepsy seizure / lasting time of clonic convulsions and tonic convulsions / times of clonic convulsion and tonic convulsion: Mean±SEM; for lasting time of clonic convulsions and tonic convulsions: pentylenetetrazole-kindled; for times of clonic convulsion and tonic convulsion: within 24 hours after pentylenetetrazol
Source text: Test 3: Inhibition Effect on Pentylenetetrazole-Kindling Model of Epilepsy in Cynomolgus Monkey In this test, six male cynomolgus monkeys were selected, and each monkey was intragastrically administrated by nasal feeding. Besides pentylenetetrazole which was administrated by subcutaneous injection, the compound of Example 29 and carbamazepine were consecutively administered for 8 days, respectively. The monkeys were respectively given a solvent prior to the first administration, and were injected subcutaneously with pentylenetetrazole immediately after the last administration. The administration interval between two tests was about 10 days. Pentylenetetrazine was administered once to induce epilepsy prior to the first administration of the compound of Example 29. The dosage was calculated according to the latest weight of the animal, and the date of first administration was designated as Day 1. Surgical procedure: the animals were fed adaptively for at least one week in feeding facilities, and then they were anesthetized during preoperative preparation according to the company standards. The main operation procedures were as follows: cutting the head skin, fully exposing the skull, stripping the periosteum, and cleaning the skull surface with a dry absorbent cotton; drilling 2 holes on the skull of the cynomolgus monkey with cranial drill, implanting a brain electrode, and fixing it with dental cement; then burying two myoelectric electrodes into the neck muscles of the cynomolgus monkey, and burying eye-electric electrodes into the bilateral eye muscles, fixing the implant body in the abdominal muscle layer. Postoperative care was performed according to the company standards. The raw data was collected by Ponemah of DSI system, and analyzed and revised by Neuronscore. The data was shown by mean±standard error (Mean±SEM), statistical analysis was performed by t-test and ANOVA. P<0.05 indicated a significant difference, P<0.01 indicated a very significant difference, P<0.001 indicated an extremely significant difference. The characteristics of electroencephalic response and electroencephalic energy for pentylenetetrazole-kindling epilepsy were observed and analyzed, and then a comparison was made between Example 29 and carbamazepine in terms of the latency for the onset of epilepsy seizure, and the times and lasting time of clonic convulsions and tonic convulsions in cynomolgus monkey pentylenetetrazole-kindling model, so as to compare the pharmacodynamic inhibitory effect of Example 29 and carbamazepine on cynomolgus monkey pentylenetetrazole-kindling model. After the cynomolgus monkeys were injected subcutaneously with 40 mg/kg pentylenetetole on the back and were induced epilepsy-like behaviors, the electroencephalic response, electromyogrphic response and locomotor activity were detected by DSI wireless remote sensing signal recording system. […] The behaviors were divided into paroxysmal activity, clonic convulsion and tonic convulsions according to the status of epilepsy. The changes of electroencephalic energy within 4-24 Hz were statistically analyzed when cynomolgus monkeys suffered epileptic seizure within 24 hours after injection of pentylenetetrazole.

For CC[C@@]12C=C(c3nc(C)no3)n3c4c(c5ccccc53)CCN(CCC1)[C@H]42 [Example 29, 5-((4^1S,13aS)-13a-ethyl-2,3,4^1,5,6,13a-hexahydro-1H-indolo[3,2,1-de]pyrido[3,2,1-ij][1,5]naphthyridin-12-yl)-3-methyl-1,2,4-oxadiazole], the “area under the concentration-time curve (0-inf)” value (from here on “area”) ([1]; intravenous injection 1 mg/kg) was 4.04 µM·h, the clearance ([1]; intravenous injection 1 mg/kg) was 12 mL/min/kg and the half-life ([1]; intravenous injection 1 mg/kg) was 9.42 h. The bioavailability ([1]; oral administration 3 mg/kg) was 37.5%, the Peak concentration ([1]; oral administration 3 mg/kg) was 1299 nM and the “Time to Peak” value ([1]; oral administration 3 mg/kg) was 1.0 h. The “area” value ([1]; oral administration 3 mg/kg) was 4.545 µM·h, the “half-life longer than that of vinpocetine” value ([1]; relative to vinpocetine) was 56% and the “plasma clearance lower than that of vinpocetine” value ([1]; relative to vinpocetine) was “about 85%”. For the same compound, the pIC50 [2] was 4.70 to 6.00, the “latency prolonged than the Vehicle group” value ([3]; 8 days) was 39.24 min and the “latency, relative increase versus Vehicle group” value ([3]; 8 days) was 160%. The “latency prolonged than the carbamazepine group” value ([3]; 8 days, versus carbamazepine group) was 18.9 min, the “latency for the onset of epilepsy seizure” value [3] was 64.10 ± 13.21 min and the “lasting time of clonic convulsions and tonic convulsions” value [3] was 2.61 ± 0.99 min. The “lasting time of convulsions shortened compared with the Vehicle Group” value [3] was 9.07 min, the “lasting time of convulsions, relative reduction versus Vehicle Group” value [3] was 78% and the “lasting time of convulsions shortened compared with the carbamazepine group” value ([3]; versus carbamazepine group) was “about 2.1 min”. The “times of clonic convulsion and tonic convulsion” value [3] was 25.7±7.07, the “times of clonic and tonic convulsion reduced compared with the Vehicle Group” value ([3]; within 24 hours) was “about 82 times” and the “times of clonic and tonic convulsion, relative reduction versus Vehicle Group” value ([3]; within 24 hours) was 76%. For the same compound, the “times of clonic and tonic convulsion reduced compared with the carbamazepine group” value ([3]; within 24 hours, versus carbamazepine group) was “about 14 times”.

With CCOC(=O)C1=C[C@]2(CC)CCCN3CCc4c(n1c1ccccc41)[C@@H]32 [Vinpocetine, reference compound] the “area” value ([1]; intravenous injection 1 mg/kg) was 0.588 µM·h, the clearance ([1]; intravenous injection 1 mg/kg) was 80.5 mL/min/kg and the half-life ([1]; intravenous injection 1 mg/kg) was 6.03 h. The bioavailability ([1]; oral administration 3 mg/kg) was 12.3%, the Peak concentration ([1]; oral administration 3 mg/kg) was 142 nM and the “Time to Peak” value ([1]; oral administration 3 mg/kg) was 0.5 h. For the same compound, the “area” value ([1]; oral administration 3 mg/kg) was 0.216 µM·h.

In the case of CC[C@@]12C=C(c3noc(-c4ccc(F)cc4)n3)n3c4c(c5ccccc53)CCN(CCC1)[C@H]42 [Example 27, 3-((4^1S,13aS)-13a-ethyl-2,3,4^1,5,6,13a-hexahydro-1H-indolo[3,2,1-de]pyrido[3,2,1-ij][1,5]naphthyridin-12-yl)-5-(4-fluorophenyl)-1,2,4-oxadiazole], the pIC50 [2] was < 4.00.

With CC[C@@]12C=C(c3cnco3)n3c4c(c5ccccc53)CCN(CCC1)[C@H]42 [Example 4, 5-((4^1S,13aS)-13a-ethyl-2,3,4^1,5,6,13a-hexahydro-1H-indolo[3,2,1-de]pyrido[3,2,1-ij][1,5]naphthyridin-12-yl)oxazole] the pIC50 [2] was 4.00 to 4.70.

With CC[C@@]12C=C(/C(C#N)=N/OC)n3c4c(c5ccccc53)CCN(CCC1)[C@H]42 [Example 2, (4^1S,13aS,Z)-13a-ethyl-N-methoxyl-2,3,4^1,5,6,13a-hexahydro-1H-indolo[3,2,1-de]pyrido[3,2,1-ij][1,5]naphthyridine-12-carbimidoyl cyanide] the pIC50 [2] was 4.70 to 6.00.

For NC(=O)N1c2ccccc2C=Cc2ccccc21 [carbamazepine, reference compound], the “latency prolonged than the Vehicle group” value ([3]; 8 days) was 20.34 min, the “latency, relative increase versus Vehicle group” value ([3]; 8 days) was 81% and the “latency for the onset of epilepsy seizure” value [3] was 45.20 ± 9.11 min. For the same compound, the “lasting time of clonic convulsions and tonic convulsions” value [3] was 4.71 ± 2.35 min, the “lasting time of convulsions shortened compared with the Vehicle Group” value [3] was 6.97 min and the “lasting time of convulsions, relative reduction versus Vehicle Group” value [3] was 60%. The “times of clonic convulsion and tonic convulsion” value [3] was 39.20±14.92, the “times of clonic and tonic convulsion reduced compared with the Vehicle Group” value ([3]; within 24 hours) was “about 68 times” and the “times of clonic and tonic convulsion, relative reduction versus Vehicle Group” value ([3]; within 24 hours) was 63%.

With CC[C@@]12C=C(c3nc(C)c(N4CCOCC4)o3)n3c4c(c5ccccc53)CCN(CCC1)[C@H]42 [Example 67, 4-(2-((4^1S,13aS)-13a-ethyl-2,3,4^1,5,6,13a-hexahydro-1H-indolo[3,2,1-de]pyrido[3,2,1-ij][1,5]naphthyridin-12-yl)-4-methyloxazol-5-yl)morpholine] the pIC50 [2] was ≥ 6.00.

With CC[C@@]12C=C(c3cc(C)no3)n3c4c(c5ccccc53)CCN(CCC1)[C@H]42 [Example 47, 5-((4^1S,13aS)-13a-ethyl-2,3,4^1,5,6,13a-hexahydro-1H-indolo[3,2,1-de]pyrido[3,2,1-ij][1,5]naphthyridin-12-yl)-3-methylisoxazole] the pIC50 [2] was 4.70 to 6.00.

With CC[C@@]12C=C(c3nc4c(o3)CCOC4)n3c4c(c5ccccc53)CCN(CCC1)[C@H]42 [Example 66, 2-((4^1S,13aS)-13a-ethyl-2,3,4^1,5,6,13a-hexahydro-1H-indolo[3,2,1-de]pyrido[3,2,1-ij][1,5]naphthyridin-12-yl)-6,7-dihydro-4H-pyrano[3,4-d]oxazole] the pIC50 [2] was ≥ 6.00.

For CCCC(O)(CCC)C1=C[C@]2(CC)CCCN3CCc4c(n1c1ccccc41)[C@@H]32 [Example 49, 4-((4^1S,13aS)-13a-ethyl-2,3,4^1,5,6,13a-hexahydro-1H-indolo[3,2,1-de]pyrido[3,2,1-ij][1,5]naphthyridin-12-yl) heptan-4-ol], the pIC50 [2] was < 4.00.

With CC[C@@]12C=C(c3nnco3)n3c4c(c5ccccc53)CCN(CCC1)[C@H]42 [Example 15, 2-((4^1S,13aS)-13a-ethyl-2,3,4^1,5,6,13a-hexahydro-1H-indolo[3,2,1-de]pyrido[3,2,1-ij][1,5]naphthyridin-12-yl)-1,3,4-oxadiazole] the pIC50 [2] was < 4.00.
